We go through eleven molecules from patent publication US20220160713A1, “SELECTIVE INHIBITOR OF PROTEIN ARGININE […] 5 (PRMT5)” (PRELUDE THERAPEUTICS, INCORPORATED, priority 2019, published 2022).

Data set [1] in a line: physchem. The following applies: 25 °C, thermodynamic from solid. How it is done:
Compounds are first dispersed in freshly prepared FaSSIF (http://biorelevant.com/site_media/upload/documents/How_to_make_FaSSIF_FeSSIF_and_FaSSGF.pdf) buffer in 1 mg/mL respectively, and the standard samples are prepared by preparing 1 mg/mL of test compounds in DMSO. The compounds are then sufficient mixed by vortex mixer for 30 sec, and agitated at 25° C. using 300 rpm form 4 hour in thermo mixer. After incubation, the prepared samples are centrifuged at 10000 rpm for 10 min to remove the undissolved solid, the resulting supernatants are applied to HPLC. The actual concentrations of the compounds are evaluated by measuring the peak area, and the solubility (S) of compounds is calculated according to following equation:
S=Csmp=Cstd*(Asmp/Astd)*(Vstd/Vsmp)
Where C is the sample concentration in μg/mL, A is the peak area, and V is the injection volume.

The test system of data set [2] is Granta-519 cells. Description: Cell proliferation assay on Granta-519 cells (CCK-8). The following applies: Homo sapiens, 240 h; Granta-519 cell line, day 10; read-out: Prolif. IC50. The format is cell-based. How it is done:
Granta-519 cells are maintained in PRMI 1640 (Corning Cellgro, Catalog #: 10-040-CV) medium supplemented with 10% v/v FBS (GE Healthcare, Catalog #: SH30910.03). Formula I is dissolved in DMSO to make 10 mM stocks and stored at −20° C. Nine-point, 3-fold serial dilutions are made with DMSO with top concentration at 1 mM (working stocks).
On day of experiment, compound working stocks are further diluted at 1:50 with fresh medium in 96 well plate, and 10 μL of diluted drugs are added to a new 96 well plate for proliferation assay. Cells growing at exponential phase are spun down at 1500 rpm for 4 min and resuspend in fresh medium to reach a density of 0.5×10^6 cells/ml. 200 ul of cells are added to 96 well plate containing diluted drugs and incubated for 3 days. DMSO is used a vehicle control.
One day 3, 10 μL of Cell Counting Kit-8 (CCK-8, Jojindo, CK04-13) solution is added to a new 96 well plate. […] Plates are incubated in CO2 incubator for 2 hours and OD450 values are measured with a microplate reader (iMark microplate reader, Bio-Rad). […]
Percentage of viable cells, relative to DMSO vehicle control, is calculated and plotted in Graphpad Prism ([Inhibitor] vs. normalized response−Variable slope) to determine proliferation IC50 values on day 10.

Data set [3] in a line: Rat non-crossover PK study. The class given is in vivo, rat (SD, male, non-fasted). The following applies: 1 mg/kg p.o. How it is done:
In a rat (SD, male, non-fasted) non-crossover PK study, the compound of Formula I was dosed at 1 mg/kg (DMA: 20% HPBCD=5:95, solution) via i.v. administration (N=3) and 1 mg/kg (0.5% Na CMC+0.5% Tween80, solution) via oral gauge (p.o.) (N=3).

Data set [4] concerns Symmetric Di-Methyl Arginine (sDMA) marks in Granta-519 cell line. Description: Cellular sDMA western blot in Granta cells. The class given is cell-based. The following applies: Homo sapiens, 72 h, 3 days.
Data set [5] relates to sDMA in Granta-519 tumor samples. Description: sDMA levels in tumor samples of Granta-519 mouse xenograft (western blot). The class given is in vivo. How it is done:
(§1) Granta-519 cells was maintained in DMEM medium supplemented with 10% fetal bovine serum and 2 mM L-Glutamine at 37° C. in an atmosphere of 5% CO2 in air. Cells in exponential growth phase were harvested and 1×10^7 cells in 0.1 mL of PBS with Matrigel (1:1) were injected subcutaneously at the right lower flank region of each mouse for tumor development. The treatments were started when the mean tumor size reaches approximately 300-400 mm^3. […] Formula I or vehicle (0.5% Na CMC+0.5% Tween80, suspension) were administered orally (QD for Formula I, QD for vehicle) at a dose of 30 mg/kg and 50 mg/kg for 19 and 16 days, respectively. Body weights and tumor size were measured every 3 to 4 days after randomization. Animals were euthanized 12 hours after last dosing, and blood and tumor samples were collected for analysis.
To measure sDMA levels in tumor samples, tumors from each mouse were weighted and homogenized in RIPA buffer supplemented with protease inhibitor (cOmplete™, EDTA-free Protease Inhibitor Cocktail, Roche). Lysate were centrifuged at 14,000 rpm for 30 min at 4° C. to remove debris. Total protein concentrations of lysate were determined by BCA assay (ThermoFisher Scientific, Catalog #: 23225). Equal amount of total proteins from each tumor were separated on SDS-PAGE gel, and sDMA levels were determined by WB as described previously.
On the technique in general: In western blotting, separated proteins are transferred to a membrane and probed.

Data set [6] relates to Granta-519 mouse xenograft. Description: Tumor growth inhibition in Granta-519 mouse xenograft model. The format is in vivo. How it is done: as §1
A short description of data set [7]: Dynamic vapor sorption (DVS). The format is physicochemical. How it is done: The dynamic vapor sorption experiments can be done with a VTI SGA-Cx100 Symmetric Vapor Sorption Analyzer. The moisture uptake profile is completed in three cycles of 10% RH increments with adsorption from 5% to 95% RH, followed by desorption of 10% increments from 95% to 5%. The equilibration criteria are 0.0050 wt % in 5 minutes with a maximum equilibration time of 180 minutes. All adsorption and desorption are performed at room temperature (21-22° C.). No pre-drying step is applied for the samples.

The nature of data set [8]: Gravimetric solubility estimate in water. The format is physicochemical. To be noted: thermodynamic from solid.
[9] abbreviates: room temperature, normal humidity range (40-50% RH).

Converted amounts (≈) assume the structure as drawn. “Also recorded” adds a separate entry of the source.

`O=C1C(O)=C([C@H]2CC[C@H](c3ccc(Cl)cc3)CC2)C(=O)c2ccccc21` [Atovaquone] had a solubility at 4 h in data set [1] (fassif) of less than 2 µg/mL.

As to `C[C@@]1(O)[C@@H]([C@H](O)c2ccc(Cl)c(Cl)c2)O[C@@H](n2ccc3c(N)ncnc32)[C@@H]1O` [Formula I, (2R,3S,4R,5R)-5-(4-amino-7H-pyrrolo[2,3-d]pyrimidin-7-yl)-2-((R)-(3,4-dichlorophenyl)(hydroxy)methyl)-3-methyltetrahydrofuran-3,4-diol], the IC50 in data set [2] worked out at 0.075 µM; in data set [4], 0.031 µM. The “average dose normalized AUC” value in data set [3] came to 3246 ng·kg·h/mL/mg. The bioavailability in data set [3] (male, SD, blood, po) was more than 100%. For the same molecule, the “inhibition of sDMA in tumor” value in data set [5] (30 mg/kg orally QD) is more than 90%. Further, in data set [5] (50 mg/kg orally QD), the sDMA in tumor result was “no detectable sDMA”. Moreover, the body weight loss in data set [6] (30 mg/kg orally QD, 19 days) is listed as 1%; in data set [6] (50 mg/kg orally QD, 16 days), 8%. For the same molecule, the tumor growth inhibition in data set [6] (30 mg/kg orally QD, 19 days) is reported as 46%; in data set [6] (50 mg/kg orally QD, 16 days), 79%.

In the case of `C[C@@]1(O)[C@@H]([C@H](O)c2ccc(Cl)c(Cl)c2)O[C@@H](n2ccc3c(N)ncnc32)[C@@H]1O` [Formula I, Form I, (2R,3S,4R,5R)-5-(4-amino-7H-pyrrolo[2,3-d]pyrimidin-7-yl)-2-((R)-(3,4-dichlorophenyl)(hydroxy)methyl)-3-methyltetrahydrofuran-3,4-diol], in data set [7], the “change of form, XRPD before and after DVS” value (“change of form” for short) was “did not change the polymorphic form; also recorded: no change in form”. Also, the results for the “water adsorbed (adsorption/desorption isotherms)” value in data set [7] (at about 95% humidity) and in data set [7] (setting [9]) were approximately 0.5% and approximately 0.8%, respectively.

Regarding `C[C@@]1(O)[C@@H]([C@H](O)c2ccc(Cl)c(Cl)c2)O[C@@H](n2ccc3c(N)ncnc32)[C@@H]1O.O=C(O)/C=C\C(=O)O` [Formula IA, (2R,3S,4R,5R)-5-(4-amino-7H-pyrrolo[2,3-d]pyrimidin-7-yl)-2-((R)-(3,4-dichlorophenyl)(hydroxy)methyl)-3-methyltetrahydrofuran-3,4-diol, maleate salt], in data set [8], the solubility was approximately 1100 µg/mL.

As for `C[C@@]1(O)[C@@H]([C@H](O)c2ccc(Cl)c(Cl)c2)O[C@@H](n2ccc3c(N)ncnc32)[C@@H]1O.Cl` [Formula IB, (2R,3S,4R,5R)-5-(4-amino-7H-pyrrolo[2,3-d]pyrimidin-7-yl)-2-((R)-(3,4-dichlorophenyl)(hydroxy)methyl)-3-methyltetrahydrofuran-3,4-diol, hydrochloride salt], in data set [8], the solubility was approximately 800 µg/mL.

As to `C[C@@]1(O)[C@@H]([C@H](O)c2ccc(Cl)c(Cl)c2)O[C@@H](n2ccc3c(N)ncnc32)[C@@H]1O.Cl` [Formula IB, Form III], in data set [7], the “change of form” value is recorded as “no change in form”. For the same molecule, the “water adsorbed (adsorption/desorption isotherms)” value is reported as approximately 2.8% in data set [7] (at about 95% humidity) and approximately 1% in data set [7] (setting [9]).

Take `C[C@@]1(O)[C@@H]([C@H](O)c2ccc(Cl)c(Cl)c2)O[C@@H](n2ccc3c(N)ncnc32)[C@@H]1O.Cl` [Formula IB, Form II]: the “change of form” value in data set [7] was “no change in Form”. Further, the “water adsorbed (adsorption/desorption isotherms)” value is approximately 6% in data set [7] (at about 95% humidity) and approximately 3% in data set [7] (setting [9]).

In the case of `C[C@@]1(O)[C@@H]([C@H](O)c2ccc(Cl)c(Cl)c2)O[C@@H](n2ccc3c(N)ncnc32)[C@@H]1O.Cl` [Formula IB, Form I], the “change of form” value in data set [7] is on record as “no change in Form”. The “water adsorbed (adsorption/desorption isotherms)” value in data set [7] (at about 95% humidity) was approximately 0.5%; in data set [7] (setting [9]), approximately 0.1%.

With `C[C@@]1(O)[C@@H]([C@H](O)c2ccc(Cl)c(Cl)c2)O[C@@H](n2ccc3c(N)ncnc32)[C@@H]1O.O=C(O)C(=O)O` [Formula IC, (2R,3S,4R,5R)-5-(4-amino-7H-pyrrolo[2,3-d]pyrimidin-7-yl)-2-((R)-(3,4-dichlorophenyl)(hydroxy)methyl)-3-methyltetrahydrofuran-3,4-diol, oxalate salt], in data set [8], the solubility was less than 300 µg/mL.

On to `C[C@@]1(O)[C@@H]([C@H](O)c2ccc(Cl)c(Cl)c2)O[C@@H](n2ccc3c(N)ncnc32)[C@@H]1O.O=P(O)(O)O` [Formula ID, (2R,3S,4R,5R)-5-(4-amino-7H-pyrrolo[2,3-d]pyrimidin-7-yl)-2-((R)-(3,4-dichlorophenyl)(hydroxy)methyl)-3-methyltetrahydrofuran-3,4-diol, phosphate salt], for which, in data set [8], the solubility was less than 300 µg/mL.

With `CC(=O)CC(c1ccccc1)c1c(O)c2ccccc2oc1=O` (stereo not shown) [Warfarin], in data set [1], the solubility at 4 h is 10 to 25 µg/mL (≈ 32.4 to 81.1 µM).

Usually solubility stands for the concentration that dissolves in the medium under given conditions. As a reminder, the IC50 is the midpoint of a concentration-inhibition curve. Usually bioavailability stands for the share of a dose that reaches the circulation, judged against a reference dose that is usually intravenous. Lower therefore signals poor availability.
